What was measured:
Type in all cases: cell-based
Settings in all cases: 72 h, mean ±SD
Jurkat (human leukemia) = assay: Cytotoxic activity, XTT assay, Jurkat
Experimental: (§1) The cytotoxic of compounds of formulas (I) and (II) 14-50 was assessed towards human cancer (HepG2, HeLa and Jurkat) cell lines (Table 3 below). Compounds presented on Table 4 were also tested against a non-tumoral liver cell line (Chang liver). The cell viability of HeLa, HepG2 and Chang liver cells was determined by the MTT assay. Briefly, exponentially growing cells were plated in 96-well plates at a density of 1×10^3, 8×10^3 and 5×10^3 cells/well respectively and incubated for 24 h before treatment. The grown medium was replaced with one contained the tested compounds dissolved in DMSO (final DMSO concentration <0.1%) at different concentrations, in triplicate wells, and cells were incubated for 72 h. After incubation with the compounds, the medium was removed and MTT solution (0.5 mg/ml, 100 μl) was added to each well and the plates were incubated again for 1 h. DMSO (100 μl) was then added to dissolve the formazan crystals and the plates were immediately read at 550 nm on an ELISA plate reader (Tecan Sunrise MR20-301, TECAN, Austria). For the Jurkat cells, the cell viability was determined by the XTT assay. Briefly, exponentially growing cells were plated in 96-well plates at a density of 5.5×10^3 cells/well, treated with different concentrations of compounds in triplicate and incubated for 72 h. After incubation with the compounds the XTT labeling mixture (100 μl) were added to each of the wells and after a 4 h incubation period the plates were read at 450 nm on an ELISA plate reader. […] Known for its cytotoxic activity, betulinic acid 2 was used as a positive control in this experimentation. […] All the IC50 results represent an average of a minimum of three experiments and were expressed as means±standard deviation (SD).

[1] = tested on: HeLa (human cervical adenocarcinoma); assay: Cytotoxic activity, MTT assay, HeLa
Experimental: The cytotoxic of compounds of formulas (I) and (II) 14-50 was assessed towards human cancer (HepG2, HeLa and Jurkat) cell lines (Table 3 below). Compounds presented on Table 4 were also tested against a non-tumoral liver cell line (Chang liver). The cell viability of HeLa, HepG2 and Chang liver cells was determined by the MTT assay. Briefly, exponentially growing cells were plated in 96-well plates at a density of 1×10^3, 8×10^3 and 5×10^3 cells/well respectively and incubated for 24 h before treatment. The grown medium was replaced with one contained the tested compounds dissolved in DMSO (final DMSO concentration <0.1%) at different concentrations, in triplicate wells, and cells were incubated for 72 h. After incubation with the compounds, the medium was removed and MTT solution (0.5 mg/ml, 100 μl) was added to each well and the plates were incubated again for 1 h. DMSO (100 μl) was then added to dissolve the formazan crystals and the plates were immediately read at 550 nm on an ELISA plate reader (Tecan Sunrise MR20-301, TECAN, Austria). For the Jurkat cells, the cell viability was determined by the XTT assay. Briefly, exponentially growing cells were plated in 96-well plates at a density of 5.5×10^3 cells/well, treated with different concentrations of compounds in triplicate and incubated for 72 h. After incubation with the compounds the XTT labeling mixture (100 μl) were added to each of the wells and after a 4 h incubation period the plates were read at 450 nm on an ELISA plate reader. […] Known for its cytotoxic activity, betulinic acid 2 was used as a positive control in this experimentation.

[2] = tested on: HepG2 (human hepatocellular carcinoma); assay: Cytotoxic activity, MTT assay, HepG2
Experimental: as §1

Compound	IC50 (Jurkat (human leukemia)) [µM]	IC50 [1] [µM]	IC50 [2] [µM]
C=C(C)[C@@H]1CC[C@]2(COC(=O)n3ccnc3)CC[C@]3(C)[C@H](CC[C@@H]4[C@@]5(C)CC[C@H](OC(C)=O)C(C)(C)[C@@H]5CC[C@]43C)[C@@H]12 [Compound 22, 3β-acetoxy-lup-20(29)-en-28-yl-1H-imidazole-1-carboxylate]	> 30	> 30	> 30
C=C(C)[C@@H]1CC[C@]2(COC(=O)n3cncn3)CC[C@]3(C)[C@H](CC[C@@H]4[C@@]5(C)CC[C@H](O)C(C)(C)[C@@H]5CC[C@]43C)[C@@H]12 [Compound 16, 3β-hydroxy-lup-20(29)-en-28-yl-1H-triazole-1-carboxylate]	–	15.2 ± 2.1	–
C=C(C)C1CCC2(COC(=O)n3cncn3)CCC3(C)C(CCC4C5(C)CCC(OC(=O)n6cncn6)C(C)(C)C5CCC43C)C12 (stereo not drawn) [Compound 19, Lup-20(29)-en-3β,28-di-yl-(1H-triazole-1-carboxylate)]	–	> 30	–
C=C(C)C1CCC2(COC(C)=O)CCC3(C)C(CCC4C5(C)CCC(OC(=O)n6cncn6)C(C)(C)C5CCC43C)C12 (stereo not drawn) [Compound 27, 28-acetoxy-lup-20(29)-en-3β-yl-1H-triazole-1-carboxylate]	–	> 30	–
C=C(C)[C@@H]1CC[C@]2(COC(=O)n3ccnc3C)CC[C@]3(C)[C@H](CC[C@@H]4[C@@]5(C)CC[C@H](OC(C)=O)C(C)(C)[C@@H]5CC[C@]43C)[C@@H]12 [Compound 23, 3β-acetoxy-lup-20(29)-en-28-yl-2′-methyl-1H-imidazole-1-carboxylate]	> 30	> 30	> 30
C=C(C)[C@@H]1CC[C@]2(COC(C)=O)CC[C@]3(C)[C@H](CC[C@@H]4[C@@]5(C)CC[C@H](OC(=O)n6ccnc6)C(C)(C)[C@@H]5CC[C@]43C)[C@@H]12 [Compound 25, 28-acetoxy-lup-20(29)-en-3β-yl-1H-imidazole-1-carboxylate]	> 30	> 30	> 30
C=C(COC)[C@@H]1CC[C@]2(COC(=O)n3ccnc3C)CC[C@]3(C)[C@H](CC[C@@H]4[C@@]5(C)CC[C@H](OC(=O)n6ccnc6C)C(C)(C)[C@@H]5CC[C@]43C)[C@@H]12 [Compound 39, 30-methoxylup-20(29)-en-3β,28-di-yl-(2′-methyl-1H-imidazole-1-carboxylate)]	> 30	13.4 ± 0.6	28.2 ± 2.5
C=C(C)[C@@H]1CC[C@]2(CO)CC[C@]3(C)[C@H](CC[C@@H]4[C@@]5(C)CC[C@H](OC(=O)n6cncn6)C(C)(C)[C@@H]5CC[C@]43C)[C@@H]12 [Compound 21, 28-hydroxy-lup-20(29)-en-3β-yl-1H-triazole-1-carboxylate]	–	11.3 ± 1.9	–
C=C(C)C1CCC2(C(=O)n3cncn3)CCC3(C)C(CCC4C5(C)CCC(OC(=O)n6cncn6)C(C)(C)C5CCC43C)C12 (stereo not drawn) [Compound 32, 28-(1H-triazole-1-yl)-28-oxo-lup-20(29)-en-3β-yl-1H-triazole-1-carboxylate]	–	14.5 ± 3.2	–
C=C(COC)C1CCC2(COC(=O)n3cncn3)CCC3(C)C(CCC4C5(C)CCC(OC(=O)n6cncn6)C(C)(C)C5CCC43C)C12 (stereo not drawn) [Compound 40, 30-methoxylup-20(29)-en-3β,28-di-yl-(1H-triazole-1-carboxylate)]	–	> 30	–
C=C(COC)[C@@H]1CC[C@]2(COC(=O)n3cncn3)CC[C@]3(C)[C@H](CC[C@@H]4[C@@]5(C)CC[C@H](O)C(C)(C)[C@@H]5CC[C@]43C)[C@@H]12 [Compound 37, 3β-hydroxy-30-methoxylup-20(29)-en-28-yl-1H-triazole-1-carboxylate]	–	13.8 ± 2.3	–
C=C(C)[C@@H]1CC[C@]2(COC(=O)n3cncn3)CC[C@]3(C)[C@H](CC[C@@H]4[C@@]5(C)CC[C@H](OC(C)=O)C(C)(C)[C@@H]5CC[C@]43C)[C@@H]12 [Compound 24, 3β-acetoxy-lup-20(29)-en-28-yl-1H-triazole-1-carboxylate]	–	23.2 ± 2.1	–
